Values of other authors in patent US20160310431A1, “Three-Phase System for Modified Release of a Non-Steroidal Antiinflammatory” (priority 2013, published 2016).
Where two headings read alike, the source gives them in different places.

Legend:
[1] = test system: COX-1 and COX-2; conditions: COX-1 vs COX-2
[2] = test system: plasma proteins
[3] = intramuscular administration
[4] = not given; remark: listed apart in the source
[5] = intramuscular administration, single dose of 30 mg

metabolized via the liver by conjugation (inactive metabolites) | excreted as a conjugated metabolite (renal excretion) | excreted as the drug without changes (renal excretion) | excreted hydroxylated (renal excretion) | binding to plasma proteins [2] | maximum plasma concentration [4, 5] | time at which maximum plasma concentration appears [4, 5] | time at which maximum plasma concentration appears ([4]; intravenous administration) | time at which maximum plasma concentration appears ([4]; oral administration, tablets or capsules) | absorption ([4]; orally and parenterally) | SMILES | selectivity for COX isoforms [1] | appearance of analgesic effect [3] | duration of analgesic effect [3] | peak of analgesic effect [3]
21% | 21.9% | 60.2% | 11.5% | 99% |  |  |  |  |  | O=C(c1ccccc1)c1ccc2n1CCC2C(=O)O (centres unmarked) [Ketorolac] | not being selective for any of the isoforms |  |  | 
 |  |  |  |  | 2.2 µg/mL | 50 min | 5.4 min | 180 min | rapidly and completely absorbed | O=C(c1ccccc1)c1ccc2n1CCC2C(=O)O (centres unmarked) [Ketorolac tromethamine] |  | first half hour | 4 to 6 h | 1 to 2 h
